Test results reported in ChEMBL document CHEMBL1909046, “DrugMatrix in vitro pharmacology data”.

Assays:
[1] = target: T1, C-X-C chemokine receptor type 1 (Homo sapiens, UniProt P25024); further: in other assays of this panel Not Active means under 50% inhibition at 10 µM
T1 sequence (P25024 whole entry): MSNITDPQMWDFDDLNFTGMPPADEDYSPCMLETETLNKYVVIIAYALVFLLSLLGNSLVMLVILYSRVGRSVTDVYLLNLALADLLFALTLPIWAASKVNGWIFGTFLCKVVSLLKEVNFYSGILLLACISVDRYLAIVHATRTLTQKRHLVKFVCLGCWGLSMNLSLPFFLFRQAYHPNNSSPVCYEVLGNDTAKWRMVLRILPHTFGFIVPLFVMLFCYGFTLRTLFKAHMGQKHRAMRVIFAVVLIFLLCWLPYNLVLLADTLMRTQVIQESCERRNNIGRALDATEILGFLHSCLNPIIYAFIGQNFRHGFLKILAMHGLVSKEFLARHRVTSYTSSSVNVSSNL

[2] = target: T2, Caspase-1 (Homo sapiens, UniProt P29466); set-up: species or system Escherichia coli;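 further: Caspase-1 enzyme inhibition assay with a peptide substrate; in other assays of this panel Not Active means under 50% inhibition at 10 µM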
T2 sequence (P29466 whole entry): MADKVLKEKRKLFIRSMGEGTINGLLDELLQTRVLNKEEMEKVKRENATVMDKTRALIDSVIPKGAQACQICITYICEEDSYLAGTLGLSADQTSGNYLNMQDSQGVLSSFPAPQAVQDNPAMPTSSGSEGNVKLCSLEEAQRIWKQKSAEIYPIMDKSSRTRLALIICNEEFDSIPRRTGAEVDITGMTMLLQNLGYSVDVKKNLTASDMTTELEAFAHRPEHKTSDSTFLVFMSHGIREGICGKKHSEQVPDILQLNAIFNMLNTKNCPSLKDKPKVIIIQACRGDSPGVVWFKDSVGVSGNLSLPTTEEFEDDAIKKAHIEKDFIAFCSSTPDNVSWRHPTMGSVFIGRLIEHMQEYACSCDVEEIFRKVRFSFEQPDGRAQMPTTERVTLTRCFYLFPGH

[3] = target: T3, Cathepsin G (Homo sapiens, UniProt P08311); type: tissue-based; details: neutrophil;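 further: inhibition of Cathepsin G enzyme activity, tested on an AMC-conjugated peptide substrate; in other assays of this panel Not Active means under 50% inhibition at 10 µM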
T3 sequence (P08311 whole entry): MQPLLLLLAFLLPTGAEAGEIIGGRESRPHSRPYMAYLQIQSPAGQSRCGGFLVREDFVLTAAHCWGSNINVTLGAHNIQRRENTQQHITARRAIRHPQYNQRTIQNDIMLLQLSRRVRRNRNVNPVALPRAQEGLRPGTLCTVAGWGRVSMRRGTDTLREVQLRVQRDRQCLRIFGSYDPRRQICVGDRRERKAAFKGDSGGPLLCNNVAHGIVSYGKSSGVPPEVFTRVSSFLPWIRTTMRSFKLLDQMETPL

[4] = target: 5-hydroxytryptamine receptor 1B (Rattus norvegicus, UniProt P28564); type: cell membranes, Wistar, Cerebral cortex, Membrane; further: in other assays of this panel Not Active means under 50% inhibition at 10 µM
[5] = target: T4, Cytochrome P450 1A2 (Homo sapiens, UniProt P05177); further: in other assays of this panel Not Active means under 50% inhibition at 10 µM
T4 sequence (P05177 whole entry): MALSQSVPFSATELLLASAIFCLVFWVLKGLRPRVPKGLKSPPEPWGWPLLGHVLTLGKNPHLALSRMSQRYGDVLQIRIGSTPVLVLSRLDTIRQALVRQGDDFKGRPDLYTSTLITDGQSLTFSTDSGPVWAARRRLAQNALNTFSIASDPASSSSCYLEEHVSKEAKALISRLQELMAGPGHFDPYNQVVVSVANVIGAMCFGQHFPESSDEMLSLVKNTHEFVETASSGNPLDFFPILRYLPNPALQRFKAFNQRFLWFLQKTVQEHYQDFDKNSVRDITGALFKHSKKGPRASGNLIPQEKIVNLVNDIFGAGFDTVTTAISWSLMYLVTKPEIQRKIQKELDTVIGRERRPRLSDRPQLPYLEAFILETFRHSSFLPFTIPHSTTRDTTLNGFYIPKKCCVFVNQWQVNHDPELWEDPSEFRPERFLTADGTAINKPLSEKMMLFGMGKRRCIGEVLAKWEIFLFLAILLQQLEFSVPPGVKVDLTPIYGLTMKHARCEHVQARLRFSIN

[6] = target: Cytochrome P450 2C19 (Homo sapiens, UniProt P33261); further: in other assays of this panel Not Active means under 50% inhibition at 10 µM
[7] = target: Cytochrome P450 2D6 (Homo sapiens, UniProt P10635); further: in other assays of this panel Not Active means under 50% inhibition at 10 µM
[8] = target: T5, Androgen receptor (Rattus norvegicus, UniProt P15207); further: in other assays of this panel Not Active means under 50% inhibition at 10 µM
T5 sequence (P15207 whole entry): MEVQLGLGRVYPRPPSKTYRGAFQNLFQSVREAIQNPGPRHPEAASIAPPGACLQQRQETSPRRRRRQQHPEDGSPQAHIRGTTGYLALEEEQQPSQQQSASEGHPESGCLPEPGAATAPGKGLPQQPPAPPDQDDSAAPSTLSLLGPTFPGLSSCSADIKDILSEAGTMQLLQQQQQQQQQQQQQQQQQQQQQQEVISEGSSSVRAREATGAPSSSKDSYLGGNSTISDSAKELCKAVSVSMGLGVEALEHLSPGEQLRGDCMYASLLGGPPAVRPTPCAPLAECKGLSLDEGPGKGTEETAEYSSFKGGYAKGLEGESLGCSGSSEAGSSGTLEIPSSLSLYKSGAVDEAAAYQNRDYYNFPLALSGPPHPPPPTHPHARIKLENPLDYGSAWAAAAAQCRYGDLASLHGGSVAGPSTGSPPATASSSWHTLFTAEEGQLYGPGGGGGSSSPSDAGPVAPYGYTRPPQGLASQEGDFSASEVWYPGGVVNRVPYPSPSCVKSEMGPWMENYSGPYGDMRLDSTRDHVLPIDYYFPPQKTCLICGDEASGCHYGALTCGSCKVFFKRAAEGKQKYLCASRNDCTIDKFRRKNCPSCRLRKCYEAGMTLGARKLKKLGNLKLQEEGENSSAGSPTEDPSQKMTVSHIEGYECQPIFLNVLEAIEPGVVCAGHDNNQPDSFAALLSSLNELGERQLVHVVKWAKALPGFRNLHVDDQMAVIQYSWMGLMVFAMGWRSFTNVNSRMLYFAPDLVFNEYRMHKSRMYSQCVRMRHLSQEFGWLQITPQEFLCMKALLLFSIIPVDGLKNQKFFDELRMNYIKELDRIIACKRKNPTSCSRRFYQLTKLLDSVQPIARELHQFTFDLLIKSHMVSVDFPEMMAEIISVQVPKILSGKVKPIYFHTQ

[9] = DRUGMATRIX: Glutamate, NMDA, Phencyclidine radioligand binding (ligand: [3H] TCP); type: cell membranes, Rattus norvegicus, Wistar, Cerebral cortex, Membrane; details: Not Active = under 50% inhibition at 10 µM
[10] = target: Cytochrome P450 2C9 (Homo sapiens, UniProt P11712); further: in other assays of this panel Not Active means under 50% inhibition at 10 µM
Cytochrome P450 2C9, sequence (P11712 whole entry): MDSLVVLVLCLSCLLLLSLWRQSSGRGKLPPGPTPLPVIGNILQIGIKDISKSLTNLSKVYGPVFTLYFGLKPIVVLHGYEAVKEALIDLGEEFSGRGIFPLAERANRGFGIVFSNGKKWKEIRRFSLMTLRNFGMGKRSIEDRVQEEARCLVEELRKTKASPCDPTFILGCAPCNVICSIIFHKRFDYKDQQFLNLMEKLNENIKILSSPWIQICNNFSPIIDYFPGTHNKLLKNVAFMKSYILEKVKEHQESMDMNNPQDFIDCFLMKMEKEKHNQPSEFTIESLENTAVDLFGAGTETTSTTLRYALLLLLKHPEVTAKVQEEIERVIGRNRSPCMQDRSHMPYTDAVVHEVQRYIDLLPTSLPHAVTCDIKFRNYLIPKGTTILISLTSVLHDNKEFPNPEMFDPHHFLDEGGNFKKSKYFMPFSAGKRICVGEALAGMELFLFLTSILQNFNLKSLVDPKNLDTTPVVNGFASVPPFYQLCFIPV

5-hydroxytryptamine receptor 1B, sequence (P28564 whole entry): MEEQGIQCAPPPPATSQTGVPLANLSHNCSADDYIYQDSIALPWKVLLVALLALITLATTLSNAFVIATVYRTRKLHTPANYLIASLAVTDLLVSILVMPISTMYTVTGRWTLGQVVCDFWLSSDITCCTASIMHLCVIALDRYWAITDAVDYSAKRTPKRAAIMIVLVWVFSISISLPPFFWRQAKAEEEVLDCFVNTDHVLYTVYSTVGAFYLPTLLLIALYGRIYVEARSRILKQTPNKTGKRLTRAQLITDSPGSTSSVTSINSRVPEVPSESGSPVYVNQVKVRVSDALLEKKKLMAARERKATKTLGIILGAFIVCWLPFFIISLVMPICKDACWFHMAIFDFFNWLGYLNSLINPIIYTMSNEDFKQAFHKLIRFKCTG
Cytochrome P450 2D6, sequence (P10635 whole entry): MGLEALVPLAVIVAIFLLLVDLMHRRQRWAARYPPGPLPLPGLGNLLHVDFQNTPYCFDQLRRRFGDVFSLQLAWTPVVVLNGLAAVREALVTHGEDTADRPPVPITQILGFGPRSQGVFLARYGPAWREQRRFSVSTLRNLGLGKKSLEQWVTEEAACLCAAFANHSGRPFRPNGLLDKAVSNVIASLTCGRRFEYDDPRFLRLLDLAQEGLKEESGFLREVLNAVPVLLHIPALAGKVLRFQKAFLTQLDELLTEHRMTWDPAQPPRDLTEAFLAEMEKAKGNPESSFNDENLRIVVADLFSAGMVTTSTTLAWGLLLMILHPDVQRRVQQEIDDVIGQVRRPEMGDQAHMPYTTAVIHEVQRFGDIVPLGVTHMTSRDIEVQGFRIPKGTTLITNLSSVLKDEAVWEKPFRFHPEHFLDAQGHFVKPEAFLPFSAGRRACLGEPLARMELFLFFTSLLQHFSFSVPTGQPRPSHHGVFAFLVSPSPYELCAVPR
Cytochrome P450 2C19, sequence (P33261 whole entry): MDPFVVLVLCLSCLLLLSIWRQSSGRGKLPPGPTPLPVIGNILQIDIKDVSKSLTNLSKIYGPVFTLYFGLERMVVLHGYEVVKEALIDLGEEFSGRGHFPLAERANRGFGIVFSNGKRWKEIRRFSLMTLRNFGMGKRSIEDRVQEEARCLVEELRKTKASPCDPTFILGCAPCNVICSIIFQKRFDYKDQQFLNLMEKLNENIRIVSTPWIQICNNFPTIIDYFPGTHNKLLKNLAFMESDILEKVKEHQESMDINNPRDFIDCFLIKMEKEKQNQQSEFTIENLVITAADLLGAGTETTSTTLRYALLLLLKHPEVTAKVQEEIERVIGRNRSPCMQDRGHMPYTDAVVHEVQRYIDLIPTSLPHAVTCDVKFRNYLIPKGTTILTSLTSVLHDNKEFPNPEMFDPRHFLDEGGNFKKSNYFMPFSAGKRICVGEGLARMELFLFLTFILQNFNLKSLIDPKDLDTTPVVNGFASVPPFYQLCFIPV

Compound | IC50 [1] | IC50 [2] | IC50 [3] | IC50 ([4]; read-out: IC50) [µM] | Ki ([4]; read-out: Ki) [µM] | IC50 [5] [µM] | IC50 [6] [µM] | IC50 [7] [µM] | IC50 [4] | IC50 [8] | IC50 [9] | Ki [9] | IC50 [10] [µM] | Ki [1] | Ki [2] | Ki [3] | Ki [4] | Ki [8]
Clc1ccc(COC(Cn2ccnc2)c2ccc(Cl)cc2Cl)cc1 (configuration not stated) [ECONAZOLE] | Not Active | Not Active | Not Active | 22 | 10 | 0.3 | 0.04 | 0.4 |  |  |  |  |  |  |  |  |  | 
CCN(CC)CCOc1ccc(/C(=C(/Cl)c2ccccc2)c2ccccc2)cc1 [ENCLOMIPHENE] | Not Active | Not Active | Not Active |  |  |  |  | 10 | Not Active | Not Active |  |  |  |  |  |  |  | 
CO[C@@H]1[C@@H](OC)[C@H](C)[C@@](O)(CC(=O)O)O[C@H]1[C@H](C)[C@H]1O[C@@]2(CC[C@@](C)([C@H]3CC[C@@](C)([C@@H]4O[C@@H]([C@H]5O[C@](C)(O)[C@H](C)C[C@@H]5C)C[C@@H]4O[C@@H]4C[C@H](OC)[C@@H](OC)[C@H](C)O4)O3)O2)C[C@H](O)[C@H]1C [MADURAMICIN ACID] | Not Active | Not Active | Not Active | 0.00298 | 0.00135 |  |  | 1 |  |  | Not Active | Not Active |  |  |  |  |  | 
COc1c2occc2cc2ccc(=O)oc12 [METHOXSALEN] | Not Active | Not Active | Not Active |  |  |  |  |  | Not Active | Not Active | Not Active | Not Active |  |  |  |  |  | 
Nc1cc(N2CCCCC2)nc(N)[n+]1[O-] [MINOXIDIL] | Not Active | Not Active | Not Active |  |  |  |  |  | Not Active | Not Active | Not Active | Not Active |  |  |  |  |  | 
CCCCOc1cc(CC2CNC(=O)N2)ccc1OC (configuration not stated) [RO-201724] | Not Active | Not Active | Not Active |  |  |  |  |  | Not Active | Not Active | Not Active | Not Active |  |  |  |  |  | 
CN[C@H]1CC[C@@H](c2ccc(Cl)c(Cl)c2)c2ccccc21 [SERTRALINE] | Not Active | Not Active | Not Active |  |  |  | 1 |  | Not Active |  |  |  |  |  |  |  |  | 
NC(=O)N1C(=O)/C(=C(\O)c2cccs2)c2cc(Cl)ccc21 [TENIDAP] | Not Active | Not Active | Not Active |  |  | 1 |  |  | Not Active | Not Active | Not Active | Not Active | 0.7 |  |  |  |  | 
CN(C/C=C/C#CC(C)(C)C)Cc1cccc2ccccc12 [TERBINAFINE] | Not Active | Not Active | Not Active |  |  |  |  | 0.2 | Not Active |  | Not Active | Not Active |  |  |  |  |  | 
Clc1ccccc1CN1CCc2sccc2C1 [TICLOPIDINE] | Not Active | Not Active | Not Active |  |  |  |  |  | Not Active | Not Active | Not Active | Not Active |  |  |  |  |  | 
NC1CCN(c2nc3c(cc2F)c(=O)c(C(=O)O)cn3-c2ccc(F)cc2F)C1 (configuration not stated) [TOSUFLOXACIN] | Not Active | Not Active | Not Active |  |  |  |  |  | Not Active | Not Active | Not Active | Not Active |  |  |  |  |  | 
O=C(Nc1ccc(Br)cc1)c1cc(Br)cc(Br)c1O [TRIBROMSALAN] | Not Active | Not Active | Not Active |  |  | 2 |  |  | Not Active |  | Not Active | Not Active | 2 |  |  |  |  | 
CC(c1cc2ccccc2s1)N(O)C(N)=O (configuration not stated) [ZILEUTON] | Not Active | Not Active | Not Active |  |  |  |  |  | Not Active | Not Active | Not Active | Not Active |  |  |  |  |  | 
MANGANESE CHLORIDE ANHYDROUS | Not Active | Not Active | Not Active |  |  |  |  |  | Not Active | Not Active | Not Active | Not Active |  | Not Active | Not Active | Not Active | Not Active | Not Active
SODIUM ORTHOVANAD | Not Active | Not Active | Not Active |  |  |  |  |  | Not Active | Not Active | Not Active | Not Active |  | Not Active | Not Active | Not Active | Not Active | Not Active
